Reference: patent US20240067662A1, “KRAS INHIBITORS” (Bristol-Myers Squibb Company, priority 2022, published 2024)

target: GMPPNP-loaded KRAS G12C (Homo sapiens, UniProt P01116, G12C); experiment: KRAS G12C RAF Disruption Assay (HTRF); format: biochemical; conditions: recombinant GMPPNP-loaded KRAS G12C (5 nM), 20 min with compound; GST-RAF1 RBD (9 nM); HTRF signal; read-out: KRASG12C RAF Disruption Assay (IC50)
Protocol: KRAS^G12C RAF Disruption Assay
This is a functional assay that measures activity of compounds against KRAS-G12C^(ON), i.e., the active form of KRAS G12C. Recombinant GMPPNP-loaded KRAS G12C (5 nM) was treated with compound at room temperature for 20 minutes in assay buffer (50 mM Tris pH 7.5, 100 mM NaCl, 1 mM MgCl2, 1 mM DTT, 100ug/ml BSA). Recombinant GST-RAF1 RBD (9 nM) was added, and the reaction mixture was incubated for 20 minutes. SA-Tb (0.25 nM) was added, and the reaction mixture was incubated for 3 hours. HTRF signal was measured (PerkinElmer Envision), the signal ratio (λem 520/λem 495) was calculated, and IC50 values were calculated from the dose-response curve.

Molecule | IC50 [nM]
2-((S)-4-(8-fluoro-2-(((S)-1-methylpyrrolidin-2-yl)methoxy)-7-(naphthalen-1-yl)pyrido[4,3-d]pyrimidin-4-yl)-1-((Z)-2-fluoro-3-(pyridin-2-yl)acryloyl)piperazin-2-yl)acetonitrile [Compound 21B] | 330
C#Cc1cccc2cccc(-c3ncc4c(N5CCC6(CCN6C(=O)/C(F)=C/c6ccccn6)C5)nc(OC[C@@]56CCCN5C[C@H](F)C6)nc4c3F)c12 (single isomer, unassigned) [Compound 104] | 16000
C#Cc1cccc2cccc(-c3ncc4c(N5CCC6(CCN6C(=O)/C(F)=C/c6ncccn6)C5)nc(OC[C@@]56CCCN5C[C@H](F)C6)nc4c3F)c12 (single isomer, unassigned) [Compound 105] | 9700
C#Cc1cccc2cccc(-c3ncc4c(N5CCC6C5CCN6C(=O)/C(F)=C/c5ccccn5)nc(OC[C@@]56CCCN5C[C@H](F)C6)nc4c3F)c12 (single isomer, unassigned) [Compound 107] | 5600
C#Cc1cccc2cccc(-c3ncc4c(N5CCC6C5CCN6C(=O)/C(F)=C/c5ccccn5)nc(OC[C@@]56CCCN5C[C@H](F)C6)nc4c3F)c12 (single isomer, unassigned) [Compound 108] | 4300
C#Cc1cccc2cccc(-c3ncc4c(N(C)C5CCN(C(=O)/C(F)=C/c6nccs6)C5C)nc(OC[C@@]56CCCN5C[C@H](F)C6)nc4c3F)c12 (single isomer, unassigned) [Example 73 cis isomer 2] | 1800
C#Cc1cccc2cccc(-c3ncc4c(N(C)C5CCN(C(=O)/C(F)=C/c6nccs6)C5C)nc(OC[C@@]56CCCN5C[C@H](F)C6)nc4c3F)c12 (single isomer, unassigned) [Example 73 trans isomer 1] | 1600
C#Cc1cccc2cccc(-c3ncc4c(N(C)C5CCN(C(=O)/C(F)=C/c6nccs6)C5C)nc(OC[C@@]56CCCN5C[C@H](F)C6)nc4c3F)c12 (single isomer, unassigned) [Example 73 trans isomer 2] | 5700
C#Cc1cccc2cccc(-c3ncc4c(N(C)C5CCN(C(=O)/C(F)=C/c6ccccn6)C5C)nc(OC[C@@]56CCCN5C[C@H](F)C6)nc4c3F)c12 (single isomer, unassigned) [Example 74 cis isomer 1] | 1000

More lines, in order of falling IC50, values ahead:

IC50 [nM] | Molecule
910 | C#Cc1cccc2cccc(-c3ncc4c(N(C)C5CCN(C(=O)/C(F)=C/c6ccccn6)C5C)nc(OC[C@@]56CCCN5C[C@H](F)C6)nc4c3F)c12 (single isomer, unassigned) [Example 74 cis isomer 2]
620 | C#Cc1cccc2cccc(-c3ncc4c(N5CCC6(CCN6C(=O)/C(F)=C/c6nccs6)C5)nc(OC[C@@]56CCCN5C[C@H](F)C6)nc4c3F)c12 (single isomer, unassigned) [Compound 103]
110 | C#Cc1cccc2cccc(-c3ncc4c(N(C)C5CCN(C(=O)/C(F)=C/c6nccs6)C5C)nc(OC[C@@]56CCCN5C[C@H](F)C6)nc4c3F)c12 (single isomer, unassigned) [Example 73 cis isomer 1]
110 | C#Cc1cccc2cccc(-c3ncc4c(N(C)C5CCN(C(=O)/C(F)=C/c6ccccn6)C5C)nc(OC[C@@]56CCCN5C[C@H](F)C6)nc4c3F)c12 (single isomer, unassigned) [Example 74 trans isomer 2]
87 | C#Cc1cccc2cccc(-c3ncc4c(N5CCC6(CCN6C(=O)/C(F)=C/c6ccccn6)C5)nc(OC[C@@]56CCCN5C[C@H](F)C6)nc4c3F)c12 (single isomer, unassigned) [Compound 102]
2.5 | C#Cc1cccc2cccc(-c3ncc4c(N(C)C5CCN(C(=O)/C(F)=C/c6ccccn6)C5C)nc(OC[C@@]56CCCN5C[C@H](F)C6)nc4c3F)c12 (single isomer, unassigned) [Example 74 trans isomer 1]
